# Measurements reported in publication PMC10669340, “Bioactive Compounds from an Endophytic Pezicula sp. Showing Antagonistic Effects against the Ash Dieback Pathogen” (Biomolecules, 2023).
# Like-named read-outs stand apart in the source and are kept apart here. Marks after values point to notes of the source that are not given here.
# What was measured:
# [1] = test system: Mucor hiemalis DSM 2656; assay: Antimicrobial serial dilution assay (MIC); type: cell-based; conditions: for Minimum inhibitory concentration (MIC): Mucor hiemalis DSM 2656, n.i.: no inhibition
# Method: (§1) The antimicrobial activity (minimum inhibitory concentration, MIC) of the compounds was determined against Acinetobacter baumannii DSM 30008, Bacillus subtilis DSM 10, Chromobacterium violaceum DSM 30191, Escherichia coli DSM 1116, Mycobacterium smegmatis ATCC 700084, Pseudomonas aeruginosa PA14, Staphylococcus aureus DSM 346, Candida albicans DSM1665, Mucor hiemalis DSM 2656, Pichia anomala DSM 6766, Rhodotorula glutinis DSM 10134 and Schizosaccharomyces pombe DSM 70572 in a serial dilution assay as previously described.
# [2] = test system: Pseudomonas aeruginosa PA14; assay: Antimicrobial serial dilution assay (MIC); type: cell-based; conditions: n.i.: no inhibition
# Method: as §1
# [3] = test system: Escherichia coli DSM 1116; assay: Antimicrobial serial dilution assay (MIC); type: cell-based; conditions: n.i.: no inhibition
# Method: as §1
# [4] = test system: Candida albicans DSM1665; assay: Antimicrobial serial dilution assay (MIC); type: cell-based; conditions: n.i.: no inhibition
# Method: as §1
# [5] = test system: Schizosaccharomyces pombe DSM 70572; assay: Antimicrobial serial dilution assay (MIC); type: cell-based; conditions: Schizosaccharomyces pombe DSM 70572; n.i.: no inhibition
# Method: as §1
# [6] = test system: Staphylococcus aureus DSM 346; assay: Antimicrobial serial dilution assay (MIC); type: cell-based; conditions: Staphylococcus aureus DSM 346; n.i.: no inhibition
# Method: as §1
# [7] = test system: Bacillus subtilis DSM 10; assay: Antimicrobial serial dilution assay (MIC); type: cell-based; conditions: Bacillus subtilis DSM 10, n.i.: no inhibition
# Method: as §1
# [8] = test system: Mycobacterium smegmatis ATCC 700084; assay: Antimicrobial serial dilution assay (MIC); type: cell-based; conditions: Mycobacterium smegmatis ATCC 700084; n.i.: no inhibition
# Method: as §1
# [9] = test system: Chromobacterium violaceum DSM 30191; assay: Antimicrobial serial dilution assay (MIC); type: cell-based; conditions: for Minimum inhibitory concentration (MIC): n.i.: no inhibition
# Method: as §1
# [10] = test system: Acinetobacter baumannii DSM 30008; assay: Antimicrobial serial dilution assay (MIC); type: cell-based; conditions: for Minimum inhibitory concentration (MIC): n.i.: no inhibition
# Method: as §1
# [11] = test system: Pichia anomala DSM 6766; assay: Antimicrobial serial dilution assay (MIC); type: cell-based; conditions: Pichia anomala DSM 6766; n.i.: no inhibition
# Method: as §1
# [12] = test system: Rhodotorula glutinis DSM 10134; assay: Antimicrobial serial dilution assay (MIC); type: cell-based; conditions: Rhodotorula glutinis DSM 10134; n.i.: no inhibition
# Method: as §1
# [13] = test system: H. fraxineus (isolate RH02-T6-B4-2); assay: Agar disc diffusion assay; type: cell-based, Hymenoscyphus fraxineus; conditions: 6 mm disc, 7 days, 21 °C
# Method: The antifungal activity of the isolated compounds against H. fraxineus was assessed by the disc diffusion method using 9 cm diameter petri dishes as previously described […] Three sterile filter paper discs per plate were gently placed on dried potato–dextrose agar. The fungicide nystatin was applied as the positive control (20 and 50 µg/paper disc) and methanol as the negative control (10 µL/paper disc). The test plates were incubated at 21 °C for 7 days, the inhibition diameters were measured, and the activity was evaluated compared to nystatin.
# Figure S44: Agar disc (6 mm diam.) diffusion assay of compound CJ-17,572 (1) against H. fraxineus RH02-T6-B4-2, grown in 9-cm petri dishes on agar-based PD
# medium with H. fraxineus, N - positive control nystatin, M - negative control methanol, CJ – 1.
# Table S1. Antifungal activity of the compounds 1-6. n.i.: no inhibition, n.t.: not tested.
# Compounds Amount ( µg/paper disc)
# Peziculastatin n.t. n.i. 8 mm
# Mycorrhizin A 19 mm 31 mm n.t.
# Cryptosporioptide A n.t. n.i. n.i.
# Cryptosporioptide B n.t. n.i. 8 mm
# Cryptosporioptide C n.t. n.i. n.i.
# Nystatin 21 mm 24 mm n.t.
# [14] = test system: Staphylococcus aureus DSM 1104 preformed biofilm; assay: Biofilm assay, dispersal of preformed biofilm; type: cell-based; set-up: Antibiofilm activity, preformed S. aureus: unit not given here; conditions: for Antibiofilm activity, preformed S. aureus: (/) no activity; for efficacy of biofilm eradication, preformed biofilms of S. aureus: concentrations between 15.6 µg/mL–125 µg/mL
# Method: Staphylococcus aureus DSM 1104 from −20 °C stock was cultured in 25 mL CASO (Casein–Peptone Soymeal–Peptone; peptone from casein 15 g/L, peptone from soy flour 5 g/L, NaCl 5 g/L, pH 7.3) medium at 37 °C at 100 rpm in 250 mL for 20 h. The precultured suspension of S. aureus was adjusted so that its OD600 matched the turbidity of a 0.001 McFarland standard. S. aureus was incubated in 96-well tissue microtiter plates (TPP tissue culture ref.no 92196, Switzerland) for 24 h at 150 rpm in […] CASO medium with 4% glucose broth. The supernatant was removed from the wells and 150 μL of the respective media (fresh) was added to the wells, together with the serially diluted compounds (250–2 μg/mL). The plates were incubated for a further 24 h at 37 °C. Staining of the biofilms was carried out as described previously. Standard deviation (SD) of two repeats with duplicates each were 10% or less. Methanol (2.5%) and microporenic acid A (250–2 μg/mL) were used as solvent and positive controls. Error bars indicate SD with duplicates in two biological repeats.
# [15] = test system: Candida albicans DSM 11225 biofilm; assay: Biofilm assay, inhibition of biofilm formation; type: cell-based; set-up: unit not given here; conditions: (/) no activity
# Method: The stock of fungal pathogen Candida albicans DSM 11225 from −20 °C was cultured in 25 mL YPD (Yeast extract Peptone Dextrose; dextrose 20 g/L, peptone 20 g/L, yeast extract 10 g/L) medium in a 250 mL flask at 30 °C with shaking 100 rpm for 18 h. Turbidity of the broth was measured and diluted to match the turbidity of a 0.05 McFarland standard in RPMI 1640 medium (Gibco, New York, NY, USA, Thermo Fisher Scientific). Afterwards, 150 μL of the fungal dispersion was added into each well of a 96-well microtiter plate (Falcon no. 351172, Thermo Fisher Scientific) and further incubated for 90 min. The supernatant was removed, and the plate was washed once by using PBS buffer. Compounds were serially diluted in 150 μL in fresh medium to concentrations of 250–2 μg/mL. Staining and analysis were conducted as previously described. Methanol (2.5%) and farnesol (250–2 μg/mL) were used as solvent and positive controls. Error bars indicate SD with duplicates in two biological repeats.
# [16] = MTT cytotoxicity assay; type: cell-based; conditions: read-out: Cytotoxic activity (IC50)
# Method: The in vitro cytotoxicity assay was performed using the MTT (3-(4,5-dimethylthiayol-2-yl)-2,5-diphenyltetrazolium bromide) test in 96-well microtiter plates as previously described.
# [17] = 50 µg/paper disc, n.i.: no inhibition
# [18] = 100 µg/paper disc, n.i.: no inhibition
molecule,measurement,setting,value
"CCC(C(=O)O)C(=O)OC1C2(C)Oc3ccc(-c4ccc5c(c4O)C(=O)C4=C(O)C6OC6(C)C(OC(=O)C(CC)C(=O)O)C4(C)O5)c(O)c3C(=O)C2=C(O)C2OC21C (stereo not drawn) [Compound 6, Cryptosporioptide C]",MIC,"[1]; Mucor hiemalis, DSM2656, read-out: Minimum inhibitory concentration (MIC)",66.6 µg/mL
same,Minimum inhibitory concentration (MIC),[2],n.i.
same,Minimum inhibitory concentration (MIC),[3],n.i.
same,Minimum inhibitory concentration (MIC),[4],n.i.
same,Minimum inhibitory concentration (MIC),[5],n.i.
same,Minimum inhibitory concentration (MIC),[6],n.i.
same,Minimum inhibitory concentration (MIC),[7],n.i.
same,Minimum inhibitory concentration (MIC),[8],n.i.
same,Minimum inhibitory concentration (MIC),[9],n.i.
same,Minimum inhibitory concentration (MIC),[10],n.i.
same,Minimum inhibitory concentration (MIC),[11],n.i.
same,Minimum inhibitory concentration (MIC),[12],n.i.
same,"Antifungal activity, inhibition diameter",[13]; [17],n.i.
same,"Antifungal activity, inhibition diameter",[13]; [18],n.i.
same,"Antibiofilm activity, preformed S. aureus",[14]; 2 µg/mL,39
same,"Antibiofilm activity, preformed S. aureus",[14]; 3.9 µg/mL,49
same,"Antibiofilm activity, preformed S. aureus",[14]; 7.8 µg/mL,68
same,"Antibiofilm activity, preformed S. aureus",[14]; 15.6 µg/mL,72
same,"Antibiofilm activity, preformed S. aureus",[14]; 31.3 µg/mL,78
same,"Antibiofilm activity, preformed S. aureus",[14]; 62.5 µg/mL,78
same,"Antibiofilm activity, preformed S. aureus",[14]; 125 µg/mL,77
same,"Antibiofilm activity, preformed S. aureus",[14]; 250 µg/mL,23
same,"efficacy of biofilm eradication, preformed biofilms of S. aureus",[14],70–80%
same,dispersal effects on preformed biofilms of S. aureus,[14]; even up to 2 µg/mL,40%
same,"Antibiofilm activity, C. albicans",[15]; 62.5 µg/mL,40
same,"Antibiofilm activity, C. albicans",[15]; 125 µg/mL,62
same,"Antibiofilm activity, C. albicans",[15]; 250 µg/mL,78
"C/C(=C\c1csc(C)n1)[C@@H]1C[C@@H]2O[C@]2(C)CCC[C@H](C)[C@H](O)[C@@H](C)C(=O)C(C)(C)[C@@H](O)CC(=O)O1 [epothilone B, reference compound]",IC50,"[16]; human, A431",0.065 nM
same,IC50,"[16]; human, A549",0.053 nM
same,IC50,"[16]; human, KB3.1, n.c.: no cytotoxicity",0.045 nM
same,IC50,"[16]; human, MCF-7",0.083 nM
same,IC50,"[16]; human, PC-3",0.28 nM
same,IC50,"[16]; human, SKOV-3",0.18 nM
same,IC50,"[16]; mouse, L929, n.c.: no cytotoxicity",0.43 nM
"CC(C)=CCC/C(C)=C/CC/C(C)=C/CO [Farnesol, farnesol, reference compound]","Antibiofilm activity, C. albicans",[15]; 15.6 µg/mL,55
same,"Antibiofilm activity, C. albicans",[15]; 31.3 µg/mL,66
same,"Antibiofilm activity, C. albicans",[15]; 62.5 µg/mL,71
same,"Antibiofilm activity, C. albicans",[15]; 250 µg/mL,81
"NC[C@H]1O[C@H](O[C@H]2[C@H](O)[C@@H](O[C@H]3O[C@H](CO)[C@@H](O)[C@H](N)[C@H]3O)[C@H](N)C[C@@H]2N)[C@H](O)[C@@H](O)[C@@H]1O [kanamycin, reference compound]",Minimum inhibitory concentration (MIC),[8],1.7 ^d µg/mL
"O=C(O)c1cn(C2CC2)c2cc(N3CCNCC3)c(F)cc2c1=O [ciprofloxacin, reference compound]",MIC,"[10]; DSM30008, n.i.: no inhibition, read-out: Minimum inhibitory concentration (MIC)",0.26 µg/mL
gentamycin [reference compound],Minimum inhibitory concentration (MIC),[2],0.21 ^b µg/mL
same,Minimum inhibitory concentration (MIC),[3],0.83 ^b µg/mL
same,Minimum inhibitory concentration (MIC),[6],0.21 ^b µg/mL
"CCC(C(=O)O)C(=O)OC1C2(C)Oc3ccc(-c4ccc5c(c4O)C(=O)C4=C(O)C6OC6(C)C(OC(=O)CC(=O)O)C4(C)O5)c(O)c3C(=O)C2=C(O)C2OC21C (stereo not drawn) [Compound 5, Cryptosporioptide B]",Minimum inhibitory concentration (MIC),[1],n.i.
same,Minimum inhibitory concentration (MIC),[2],n.i.
same,Minimum inhibitory concentration (MIC),[3],n.i.
same,Minimum inhibitory concentration (MIC),[4],n.i.
same,Minimum inhibitory concentration (MIC),[5],n.i.
same,Minimum inhibitory concentration (MIC),[6],n.i.
same,Minimum inhibitory concentration (MIC),[7],n.i.
same,Minimum inhibitory concentration (MIC),[8],n.i.
same,Minimum inhibitory concentration (MIC),[9],n.i.
same,Minimum inhibitory concentration (MIC),[10],n.i.
same,Minimum inhibitory concentration (MIC),[11],n.i.
same,Minimum inhibitory concentration (MIC),[12],n.i.
same,"Antifungal activity, inhibition diameter",[13]; [17],n.i.
same,"Antifungal activity, inhibition diameter",[13]; [18],8 mm
same,"Antibiofilm activity, preformed S. aureus",[14]; 7.8 µg/mL,54
same,"Antibiofilm activity, preformed S. aureus",[14]; 15.6 µg/mL,75
same,"Antibiofilm activity, preformed S. aureus",[14]; 62.5 µg/mL,83
same,"Antibiofilm activity, preformed S. aureus",[14]; 125 µg/mL,81
same,"Antibiofilm activity, preformed S. aureus",[14]; 250 µg/mL,49
same,"efficacy of biofilm eradication, preformed biofilms of S. aureus",[14],70–80%
same,"Antibiofilm activity, C. albicans",[15]; 62.5 µg/mL,49
same,"Antibiofilm activity, C. albicans",[15]; 125 µg/mL,50
same,"Antibiofilm activity, C. albicans",[15]; 250 µg/mL,74
"C[C@@H]1[C@H](O)[C@@H](C)/C=C/C=C/CC/C=C/C=C/C=C/C=C/C(O[C@H]2O[C@H](C)[C@@H](O)[C@H](N)[C@@H]2O)CC2O[C@](O)(CC(O)C(O)CCC(O)CC(O)CC(O)CC(=O)O[C@H]1C)CC(O)C2C(=O)O (stereo partly drawn) [nystatin, reference compound]",Minimum inhibitory concentration (MIC),[1],16.6 ^e µg/mL
same,Minimum inhibitory concentration (MIC),[4],16.6 ^e µg/mL
same,Minimum inhibitory concentration (MIC),[5],16.6 ^e µg/mL
same,Minimum inhibitory concentration (MIC),[11],16.6 ^e µg/mL
same,Minimum inhibitory concentration (MIC),[12],8.3 ^e µg/mL
same,"Antifungal activity, inhibition diameter",[13]; 20 µg/paper disc,21 mm
same,"Antifungal activity, inhibition diameter",[13]; [17],24 mm
"CN(C)[C@@H]1C(O)=C(C(N)=O)C(=O)[C@@]2(O)C(O)=C3C(=O)c4c(O)cccc4[C@@](C)(O)[C@H]3[C@H](O)[C@@H]12 [oxytetracycline, reference compound]",MIC,"[7]; DSM10, read-out: Minimum inhibitory concentration (MIC)",16.6 µg/mL
same,MIC,"[9]; DSM30191, n.i.: no inhibition, read-out: Minimum inhibitory concentration (MIC)",0.83 µg/mL
